Experiments:
Assay in all cases: cells
Settings in all cases: Homo sapiens
COR-L105 = type: functional, cell-based;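 further: cell growth inhibition determined with a viability assay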
Description: SANGER: Inhibition of human COR-L105 cell growth in a cell viability assay.

ChaGo-K-1 = type: functional, cell-based;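 further: growth inhibition of ChaGo-K-1 cells, read out with a cell viability assay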
Description: SANGER: Inhibition of human ChaGo-K-1 cell growth in a cell viability assay.

D-392MG = type: functional, cell-based
D-423MG = type: functional, cell-based
Description: SANGER: Inhibition of human D-423MG cell growth in a cell viability assay.

D-542MG = type: functional, cell-based
Description: SANGER: Inhibition of human D-542MG cell growth in a cell viability assay.

ECC10 = type: functional, cell-based;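 further: growth inhibition of ECC10 cells, read out by a cell viability assay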
Description: SANGER: Inhibition of human ECC10 cell growth in a cell viability assay.

EFO-27 = type: functional, cell-based;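 further: growth inhibition of EFO-27 cells, read out with a cell viability assay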
Description: SANGER: Inhibition of human EFO-27 cell growth in a cell viability assay.

HCC1395 = type: functional, cell-based;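 further: growth inhibition of HCC1395 cells, read out by a cell viability assay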
Description: SANGER: Inhibition of human HCC1395 cell growth in a cell viability assay.

HCC1419 = type: functional, cell-based;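 further: growth inhibition of human HCC1419 cells, read out as cell viability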
Description: SANGER: Inhibition of human HCC1419 cell growth in a cell viability assay.

HCC1954 = type: functional, cell-based;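 further: growth inhibition of human HCC1954 cells, read out with a cell viability assay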
Description: SANGER: Inhibition of human HCC1954 cell growth in a cell viability assay.

HOP-92 = type: functional, cell-based;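 further: cell viability readout, with IC50 reflecting inhibition of HOP-92 cell growth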
Description: SANGER: Inhibition of human HOP-92 cell growth in a cell viability assay.

HOS = type: functional, cell-based;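 further: growth inhibition of human HOS cells, read out with a cell viability assay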
Description: SANGER: Inhibition of human HOS cell growth in a cell viability assay.

HPAF-II = type: functional, cell-based;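 further: growth inhibition of HPAF-II cells, read out with a cell viability assay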
Description: SANGER: Inhibition of human HPAF-II cell growth in a cell viability assay.

HT1197 = type: functional, cell-based, HT-1197
Description: SANGER: Inhibition of human HT-1197 cell growth in a cell viability assay.

HuO-3N1 = type: functional, cell-based;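 further: cell viability readout used to measure how strongly compounds suppress proliferation of human HuO-3N1 cells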
Description: SANGER: Inhibition of human HuO-3N1 cell growth in a cell viability assay.

IGR-1 = type: functional, cell-based;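 further: growth inhibition of human IGR-1 cells, read out with a cell viability assay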
Description: SANGER: Inhibition of human IGR-1 cell growth in a cell viability assay.

LCLC-103H cell line = type: functional, cell-based
Description: SANGER: Inhibition of human LCLC-103H cell growth in a cell viability assay.

LoVo = type: functional, cell-based;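 further: growth inhibition of human LoVo cells, read out with a cell viability assay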
Description: SANGER: Inhibition of human LoVo cell growth in a cell viability assay.

M059J = type: functional, cell-based;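 further: growth inhibition of M059J cells, read out with a cell viability assay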
Description: SANGER: Inhibition of human M059J cell growth in a cell viability assay.

NB17 = type: functional, cell-based;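 further: growth inhibition of NB17 cells, read out with a cell viability assay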
Description: SANGER: Inhibition of human NB17 cell growth in a cell viability assay.

NB7 = type: functional, cell-based;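 further: growth inhibition of NB7 cells, read out with a cell viability assay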
Description: SANGER: Inhibition of human NB7 cell growth in a cell viability assay.

NCI-H1651 = type: functional, cell-based;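 further: Read-out is a cell viability assay, with IC50 expressing inhibition of NCI-H1651 cell growth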
Description: SANGER: Inhibition of human NCI-H1651 cell growth in a cell viability assay.

NCI-H1792 = type: functional, cell-based;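 further: growth inhibition of human NCI-H1792 cells, read out as cell viability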
Description: SANGER: Inhibition of human NCI-H1792 cell growth in a cell viability assay.

NCI-H810 = type: functional, cell-based;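 further: IC50 reflects inhibition of cancer cell line growth, read out with a cell viability assay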
Description: SANGER: Inhibition of human NCI-H810 cell growth in a cell viability assay.

OE19 = type: functional, cell-based;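 further: growth inhibition of OE19 cells, measured through a cell viability read-out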
Description: SANGER: Inhibition of human OE19 cell growth in a cell viability assay.

S-117 = type: functional, cell-based
Description: SANGER: Inhibition of human S-117 cell growth in a cell viability assay.

SBC-5 = type: functional, cell-based;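 further: cell viability assay read-out, IC50 is the concentration that inhibits growth of the cells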
Description: SANGER: Inhibition of human SBC-5 cell growth in a cell viability assay.

SCC-4 = type: functional, cell-based;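 further: growth inhibition of human SCC-4 cells, read out as cell viability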
Description: SANGER: Inhibition of human SCC-4 cell growth in a cell viability assay.

SK-N-AS = type: functional, cell-based;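 further: growth inhibition of human SK-N-AS cells, measured with a cell viability assay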
Description: SANGER: Inhibition of human SK-N-AS cell growth in a cell viability assay.

SN12C = type: functional, cell-based;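 further: growth inhibition of human SN12C cells, measured by a cell viability assay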
Description: SANGER: Inhibition of human SN12C cell growth in a cell viability assay.

SNU-423 = type: functional, cell-based
Description: SANGER: Inhibition of human SNU-423 cell growth in a cell viability assay.

SW1573 = type: functional, cell-based;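 further: growth inhibition of SW1573 cells, read out with a cell viability assay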
Description: SANGER: Inhibition of human SW1573 cell growth in a cell viability assay.

SW756 = type: functional, cell-based;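 further: growth inhibition of human SW756 cells, read out with a cell viability assay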
Description: SANGER: Inhibition of human SW756 cell growth in a cell viability assay.

SW837 = type: functional, cell-based;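 further: growth inhibition of SW837 cells, determined with a cell viability assay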
Description: SANGER: Inhibition of human SW837 cell growth in a cell viability assay.

SW948 = type: functional, cell-based;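 further: growth inhibition of SW948 cells, read out with a cell viability assay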
Description: SANGER: Inhibition of human SW948 cell growth in a cell viability assay.

A-431 = type: functional, cell-based;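 further: growth inhibition of A-431 cells, determined with a cell viability read-out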
Description: SANGER: Inhibition of human A431 cell growth in a cell viability assay.

A549 = type: functional, cell-based;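 further: growth inhibition of A549 cells, read out with a cell viability assay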
Description: SANGER: Inhibition of human A549 cell growth in a cell viability assay.

ABC-1 = type: functional, cell-based;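 further: growth inhibition of human ABC-1 cells, read out by a cell viability assay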
Description: SANGER: Inhibition of human ABC-1 cell growth in a cell viability assay.

CAL-27 = type: functional, cell-based;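 further: Viability-based readout, IC50 reflecting inhibition of CAL-27 cell growth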
Description: SANGER: Inhibition of human CAL-27 cell growth in a cell viability assay.

CAL-72 = type: functional, cell-based;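 further: cell viability assay measuring inhibition of proliferation in the CAL-72 cell line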
Description: SANGER: Inhibition of human CAL-72 cell growth in a cell viability assay.

U-251 = type: functional, cell-based;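 further: growth inhibition of human U-251 cells, read out through a cell viability assay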
Description: SANGER: Inhibition of human U251 cell growth in a cell viability assay.

CFPAC-1 = type: functional, cell-based;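 further: cell viability readout used to gauge suppression of CFPAC-1 cell proliferation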
Description: SANGER: Inhibition of human CFPAC-1 cell growth in a cell viability assay.

LB996-RCC = type: functional, cell-based
Description: SANGER: Inhibition of human LB996-RCC cell growth in a cell viability assay.

A253 cell line = type: functional, cell-based;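 further: growth inhibition of A253 cells, read out with a cell viability assay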
Description: SANGER: Inhibition of human A253 cell growth in a cell viability assay.

COc1cc(Nc2c(C#N)cnc3cc(OCCCN4CCN(C)CC4)c(OC)cc23)c(Cl)cc1Cl [BOSUTINIB]
IC50 (COR-L105): 1000 nM
IC50 (ChaGo-K-1): > 2000 nM
IC50 (D-392MG): > 2000 nM
IC50 (D-423MG): > 2000 nM
IC50 (D-542MG): > 2000 nM
IC50 (ECC10): > 2000 nM
IC50 (EFO-27): 1690 nM
IC50 (HCC1395): > 2000 nM
IC50 (HCC1419): > 2000 nM
IC50 (HCC1954): > 2000 nM
IC50 (HOP-92): > 2000 nM
IC50 (HOS): > 2000 nM
IC50 (HPAF-II): > 2000 nM
IC50 (HT1197): > 2000 nM
IC50 (HuO-3N1): > 2000 nM
IC50 (IGR-1): > 2000 nM
IC50 (LCLC-103H cell line): > 2000 nM
IC50 (LoVo): 1980 nM
IC50 (M059J): > 2000 nM
IC50 (NB17): > 2000 nM
IC50 (NB7): 82.3 nM
IC50 (NCI-H1651): > 2000 nM
IC50 (NCI-H1792): > 2000 nM
IC50 (NCI-H810): > 2000 nM
IC50 (OE19): > 2000 nM
IC50 (S-117): > 2000 nM
IC50 (SBC-5): > 2000 nM
IC50 (SCC-4): > 2000 nM
IC50 (SK-N-AS): > 2000 nM
IC50 (SN12C): > 2000 nM
IC50 (SNU-423): > 2000 nM
IC50 (SW1573): > 2000 nM
IC50 (SW756): 140 nM
IC50 (SW837): > 2000 nM
IC50 (SW948): > 2000 nM
IC50 (A-431): > 2000 nM
IC50 (A549): > 2000 nM
IC50 (ABC-1): > 2000 nM
IC50 (CAL-27): 929 nM
IC50 (CAL-72): > 2000 nM
IC50 (U-251): > 2000 nM
IC50 (CFPAC-1): > 2000 nM

CC(=O)c1c(C)c2cnc(Nc3ccc(N4CCNCC4)cn3)nc2n(C2CCCC2)c1=O [PALBOCICLIB]
IC50 (COR-L105): > 4000 nM
IC50 (ChaGo-K-1): > 4000 nM
IC50 (D-392MG): > 4000 nM
IC50 (D-423MG): > 4000 nM
IC50 (ECC10): 2700 nM
IC50 (EFO-27): 2320 nM
IC50 (HCC1395): > 4000 nM
IC50 (HCC1419): > 4000 nM
IC50 (HCC1954): > 4000 nM
IC50 (HOP-92): 3500 nM
IC50 (HOS): 1350 nM
IC50 (HPAF-II): > 4000 nM
IC50 (HT1197): > 4000 nM
IC50 (HuO-3N1): > 4000 nM
IC50 (IGR-1): > 4000 nM
IC50 (LB996-RCC): > 4000 nM
IC50 (LCLC-103H cell line): > 4000 nM
IC50 (LoVo): > 4000 nM
IC50 (M059J): > 4000 nM
IC50 (NB17): > 4000 nM
IC50 (NB7): 1990 nM
IC50 (NCI-H1651): > 4000 nM
IC50 (NCI-H1792): > 4000 nM
IC50 (NCI-H810): > 4000 nM
IC50 (OE19): > 4000 nM
IC50 (S-117): > 4000 nM
IC50 (SBC-5): > 4000 nM
IC50 (SCC-4): > 4000 nM
IC50 (SK-N-AS): 388 nM
IC50 (SN12C): 1010 nM
IC50 (SNU-423): > 4000 nM
IC50 (SW1573): > 4000 nM
IC50 (SW756): > 4000 nM
IC50 (SW948): > 4000 nM
IC50 (A253 cell line): > 4000 nM
IC50 (A-431): > 4000 nM
IC50 (A549): 1290 nM
IC50 (ABC-1): 1790 nM
IC50 (CAL-27): 495 nM
IC50 (CAL-72): > 4000 nM
IC50 (U-251): 814 nM
IC50 (CFPAC-1): > 4000 nM

CC[C@@]1(O)C(=O)OCc2c1cc1n(c2=O)Cc2cc3ccccc3nc2-1 [CAMPTOTHECIN]
IC50 (D-392MG): 17.7 nM
IC50 (D-423MG): 2.55 nM
IC50 (ECC10): 3.85 nM
IC50 (EFO-27): 81 nM
IC50 (HCC1395): > 100 nM
IC50 (HCC1419): > 100 nM
IC50 (HOP-92): 8.79 nM
IC50 (HOS): 1.4 nM
IC50 (HPAF-II): 55.1 nM
IC50 (HT1197): > 100 nM
IC50 (HuO-3N1): 12.7 nM
IC50 (LCLC-103H cell line): 20.5 nM
IC50 (LoVo): 14.9 nM
IC50 (M059J): 4.1 nM
IC50 (NB17): 2.18 nM
IC50 (NB7): 16.8 nM
IC50 (NCI-H1651): 14.9 nM
IC50 (NCI-H1792): 40.1 nM
IC50 (NCI-H810): 50.3 nM
IC50 (OE19): > 100 nM
IC50 (S-117): 78.1 nM
IC50 (SBC-5): 32.1 nM
IC50 (SCC-4): 19.3 nM
IC50 (SK-N-AS): 5.38 nM
IC50 (SN12C): 4.5 nM
IC50 (SW1573): 2.35 nM
IC50 (SW756): 4.21 nM
IC50 (SW837): 48.9 nM
IC50 (A-431): > 100 nM
IC50 (A549): 14.1 nM
IC50 (ABC-1): 3.47 nM
IC50 (CAL-27): 2.02 nM
IC50 (U-251): 1.87 nM
IC50 (CFPAC-1): 14.8 nM

Cn1c(=O)n(-c2ccc(C(C)(C)C#N)cc2)c2c3cc(-c4cnc5ccccc5c4)ccc3ncc21 [DACTOLISIB]
IC50 (COR-L105): 15 nM
IC50 (ChaGo-K-1): 328 nM
IC50 (D-392MG): 108 nM
IC50 (D-423MG): 52.1 nM
IC50 (ECC10): 32 nM
IC50 (EFO-27): 24.3 nM
IC50 (HCC1395): 698 nM
IC50 (HCC1419): 38.7 nM
IC50 (HCC1954): 513 nM
IC50 (HOP-92): 26.5 nM
IC50 (HOS): 21.1 nM
IC50 (HPAF-II): 156 nM
IC50 (HT1197): 238 nM
IC50 (HuO-3N1): 67.3 nM
IC50 (IGR-1): 46.1 nM
IC50 (LB996-RCC): 47.2 nM
IC50 (LCLC-103H cell line): 286 nM
IC50 (LoVo): 48.4 nM
IC50 (M059J): 63.6 nM
IC50 (NB17): 722 nM
IC50 (NB7): 190 nM
IC50 (NCI-H1651): 344 nM
IC50 (NCI-H1792): 66.2 nM
IC50 (NCI-H810): 278 nM
IC50 (OE19): 341 nM
IC50 (S-117): 76.3 nM
IC50 (SBC-5): 83.5 nM
IC50 (SCC-4): 71.4 nM
IC50 (SK-N-AS): 137 nM
IC50 (SN12C): 90.6 nM
IC50 (SNU-423): 68 nM
IC50 (SW1573): 109 nM
IC50 (SW756): 555 nM
IC50 (SW837): 1330 nM
IC50 (SW948): > 2000 nM
IC50 (A253 cell line): 82.6 nM
IC50 (A-431): 90 nM
IC50 (A549): 10.1 nM
IC50 (ABC-1): 420 nM
IC50 (CAL-27): 217 nM
IC50 (CAL-72): 293 nM
IC50 (U-251): 38.4 nM
IC50 (CFPAC-1): 151 nM

Reference: ChEMBL document CHEMBL1201861, “Genomics of Drug Sensitity in Cancer screening data, Wellcome Trust Sanger Institute”
